We go through one compound from publication PMC10380841, “Synthesis, Characterization and Cytotoxic Evaluation of New Pyrrolo[1,2-b]pyridazines Obtained via Mesoionic Oxazolo-Pyridazinones” (International Journal of Molecular Sciences, 2023).

Series [1] can be described thus: Daphnia magna toxicity assay. It counts as in vivo. To be noted: Daphnia magna, in vivo; 48 h. The method, then: (§1) Young organisms of Daphnia magna were selected according to their size from a parthenogenetic culture maintained in an artificial medium for 24 h before the bioassay. The determination was conducted in tissue culture plates with 12 wells (Greiner Bio-One, Monroe, NC, USA), with 10 organisms in each well, and a final volume of 3 mL per sample [65, 66]. As a negative control, DMSO was used at a concentration of 1%. All compounds were tested at six different concentration levels, ranging from 12.5 to 500 μg/mL. All assessments were performed in duplicate.

The subject of the next series is Daphnia magna Straus. The series can be described thus: Daphnia magna toxicity assay. It counts as in vivo. To be noted: 48 h. The method, then:
as §1

The test system of series [2] is LoVo colon adenocarcinoma cells. The series can be described thus: MTS cytotoxicity assay, LoVo. It counts as cell-based, human. To be noted: Homo sapiens. (In general: Tetrazolium assays rely on reduction of a dye to a coloured formazan, in cell work by metabolically active cells.)
The subject of series [3] is MCF-7 breast adenocarcinoma cells. Description: MTS cytotoxicity assay, MCF-7. It counts as cell-based, human.

Where two headings read alike, the source gives them in different places.

The term LC50 denotes the concentration lethal to half of the exposed cells or organisms. A word on the IC50: it is the concentration that inhibits the measured activity by half. As a reminder, the viability is the share of living cells, or the viability signal relative to a control. Consider `CCOC(=O)c1cc(CC)n2nc(-c3ccc(F)cc3)ccc12` [Compound 5e, Ethyl 7-ethyl-2-(4-fluorophenyl)pyrrolo[1,2-b]pyridazine-5-carboxylate], for which the LC50 at 48 h in series [1] came to 675 µM. Moreover, in the series with Daphnia magna Straus, the “toxicity on Daphnia magna” value is reported as “moderate toxicity”. Moreover, the concentration for half-maximal inhibition (IC50) was no less than 400 µM in series [2] (24 h, read-out: IC50 LoVo 24 h); no less than 400 µM in series [2] (48 h, read-out: IC50 LoVo 48 h); no less than 400 µM in series [3] (Homo sapiens, MCF7, MCF-7, 24 h, read-out: IC50 MCF-7 24 h); no less than 400 µM in series [3] (Homo sapiens, MCF7, MCF-7, 48 h, read-out: IC50 MCF-7 48 h). For the same compound, the viability at 400 µM in series [3] (Homo sapiens, MCF7, MCF-7, 400 μM, 48 h, read-out: cell viability) came out at 73.1%. Further, the cell viability entry in series [3] (MCF-7, 100–400 μM, 48 h) is on record as “less than 90%”.
